Source: ChEMBL document CHEMBL1201862, “PubChem BioAssay data set” (2004)
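Grown in 96-well plates, cells were treated for 48 hours with each compound at five concentrations. Insufficient inhibition: endpoint recorded as highest concentration tested. At the GI50, growth is halved.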 Calls of active or inactive are those of the source. No stated cut-off is given here; in the data, active = GI50 up to about 1.1 µM and inactive = higher.

Legend:
Assay in all cases: NCI anticancer screen, dose series, 48 h
[1] = system: 786-0
[2] = system: A498
[3] = system: A549
[4] = system: ACHN
[5] = system: BT-549
[6] = system: CAKI-1
[7] = system: CCRF-CEM
[8] = system: COLO 205
[9] = system: DU-145
[10] = system: EKVX
[11] = system: HCC 2998
[12] = system: HCT-116
[13] = system: HCT-15
[14] = system: HL-60
[15] = system: HOP-62
[16] = system: HOP-92
[17] = system: HT-29
[18] = system: Hs-578T
[19] = system: IGROV-1
[20] = system: K562
[21] = system: KM12
[22] = system: LOX IMVI
[23] = system: M14
[24] = system: MCF7
[25] = system: MDA-MB-231
[26] = system: MDA-MB-435
[27] = system: MDA-N
[28] = system: MOLT-4
[29] = system: Malme-3M
[30] = system: NCI-H226
[31] = system: NCI-H23
[32] = system: NCI-H460
[33] = system: NCI-H522
[34] = system: NCI/ADR-RES
[35] = system: OVCAR-3
[36] = system: OVCAR-4
[37] = system: OVCAR-5
[38] = system: OVCAR-8
[39] = system: PC-3
[40] = system: RPMI-8226
[41] = system: RXF 393
[42] = system: SF-268
[43] = system: SF-295
[44] = system: SF-539
[45] = system: SK-MEL-28
[46] = system: SK-MEL-2
[47] = system: SK-MEL-5
[48] = system: SK-OV-3
[49] = system: SN12C
[50] = system: SNB-19
[51] = system: SNB-75
[52] = system: SR
[53] = system: SW-620
[54] = system: T47D
[55] = system: TK-10
[56] = system: U-251
[57] = system: UACC-257
[58] = system: UACC-62
[59] = system: UO-31

## CC(NC1=CC(=O)c2ncccc2C1=O)C(O)c1ccccc1 (stereo not drawn)
[1]
  GI50: 8.69 µM (inactive)
[2]
  GI50: 13.4 µM (inactive)
[3]
  GI50: 3.03 µM (inactive)
[4]
  GI50: 7 µM (inactive)
[5]
  GI50: 1.85 µM (inactive)
[6]
  GI50: 6.78 µM (inactive)
[7]
  GI50: 5.75 µM (inactive)
[8]
  GI50: 16 µM (inactive)
[9]
  GI50: 6.22 µM (inactive)
[10]
  GI50: 12.6 µM (inactive)
[11]
  GI50: 10.2 µM (inactive)
[12]
  GI50: 3.6 µM (inactive)
[13]
  GI50: 3.91 µM
[14]
  GI50: 3.44 µM (inactive)
[15]
  GI50: 4.83 µM (inactive)
[16]
  GI50: 13.2 µM (inactive)
[17]
  GI50: 11.5 µM (inactive)
[18]
  GI50: 4.2 µM (inactive)
[19]
  GI50: 3.67 µM (inactive)
[20]
  GI50: 2.04 µM (inactive)
[21]
  GI50: 7.67 µM (inactive)
[22]
  GI50: 1.8 µM (inactive)
[23]
  GI50: 2.57 µM (inactive)
[24]
  GI50: 2.31 µM (inactive)
[25]
  GI50: 2.41 µM (inactive)
[26]
  GI50: 1.59 µM (inactive)
[27]
  GI50: 1.58 µM (inactive)
[28]
  GI50: 8.63 µM (inactive)
[29]
  GI50: 1.89 µM (inactive)
[30]
  GI50: 5.55 µM (inactive)
[31]
  GI50: 1.62 µM (inactive)
[32]
  GI50: 1.28 µM (inactive)
[33]
  GI50: 7.66 µM (inactive)
[34]
  GI50: 8.15 µM (inactive)
[35]
  GI50: 2.45 µM (inactive)
[36]
  GI50: 6.78 µM (inactive)
[37]
  GI50: 15.5 µM (inactive)
[38]
  GI50: 4.37 µM (inactive)
[39]
  GI50: 12.1 µM (inactive)
[40]
  GI50: 13.4 µM (inactive)
[41]
  GI50: 7.76 µM (inactive)
[42]
  GI50: 12.2 µM (inactive)
[43]
  GI50: 3.32 µM (inactive)
[44]
  GI50: 6.04 µM (inactive)
[45]
  GI50: 3.32 µM (inactive)
[46]
  GI50: 3.55 µM (inactive)
[47]
  GI50: 1.18 µM (inactive)
[48]
  GI50: 16.1 µM (inactive)
[49]
  GI50: 5.18 µM (inactive)
[50]
  GI50: 6.35 µM (inactive)
[51]
  GI50: 2.36 µM (inactive)
[52]
  GI50: 8.36 µM (inactive)
[53]
  GI50: 4.9 µM (inactive)
[54]
  GI50: 21.5 µM (inactive)
[55]
  GI50: 38 µM (inactive)
[56]
  GI50: 2.61 µM (inactive)
[57]
  GI50: 1.91 µM (inactive)
[58]
  GI50: 2.02 µM (inactive)
[59]
  GI50: 2.95 µM (inactive)

## Cc1ccc2c(c1)C(C1Cc3c(C)cccc3C1=O)OC2=O (stereo not drawn)
[1]
  GI50: > 100 µM (inactive)
[2]
  GI50: > 100 µM (inactive)
[3]
  GI50: > 100 µM (inactive)
[4]
  GI50: > 100 µM (inactive)
[5]
  GI50: 86.5 µM (inactive)
[6]
  GI50: > 100 µM (inactive)
[7]
  GI50: > 100 µM (inactive)
[8]
  GI50: > 100 µM (inactive)
[9]
  GI50: > 100 µM (inactive)
[10]
  GI50: > 100 µM (inactive)
[11]
  GI50: > 100 µM (inactive)
[12]
  GI50: > 100 µM (inactive)
[13]
  GI50: 89.7 µM
[14]
  GI50: > 100 µM (inactive)
[15]
  GI50: > 100 µM (inactive)
[16]
  GI50: > 100 µM (inactive)
[17]
  GI50: 96.6 µM (inactive)
[18]
  GI50: > 100 µM (inactive)
[19]
  GI50: > 100 µM (inactive)
[20]
  GI50: > 100 µM (inactive)
[21]
  GI50: > 100 µM (inactive)
[22]
  GI50: > 100 µM (inactive)
[23]
  GI50: > 100 µM (inactive)
[24]
  GI50: > 100 µM (inactive)
[25]
  GI50: > 100 µM (inactive)
[26]
  GI50: > 100 µM (inactive)
[27]
  GI50: > 100 µM (inactive)
[28]
  GI50: > 100 µM (inactive)
[29]
  GI50: > 100 µM (inactive)
[30]
  GI50: 61.5 µM (inactive)
[31]
  GI50: > 100 µM (inactive)
[32]
  GI50: > 100 µM (inactive)
[33]
  GI50: > 100 µM (inactive)
[34]
  GI50: 40.4 µM (inactive)
[35]
  GI50: > 100 µM (inactive)
[36]
  GI50: > 100 µM (inactive)
[37]
  GI50: > 100 µM (inactive)
[38]
  GI50: > 100 µM (inactive)
[39]
  GI50: > 100 µM (inactive)
[40]
  GI50: 63.2 µM (inactive)
[41]
  GI50: 55.3 µM (inactive)
[42]
  GI50: > 100 µM (inactive)
[43]
  GI50: > 100 µM (inactive)
[44]
  GI50: 95.5 µM (inactive)
[45]
  GI50: > 100 µM (inactive)
[46]
  GI50: > 100 µM (inactive)
[47]
  GI50: > 100 µM (inactive)
[48]
  GI50: > 100 µM (inactive)
[49]
  GI50: > 100 µM (inactive)
[50]
  GI50: > 100 µM (inactive)
[51]
  GI50: 87.7 µM (inactive)
[52]
  GI50: 91.6 µM (inactive)
[53]
  GI50: > 100 µM (inactive)
[54]
  GI50: > 100 µM (inactive)
[55]
  GI50: > 100 µM (inactive)
[56]
  GI50: 78 µM (inactive)
[57]
  GI50: > 100 µM (inactive)
[58]
  GI50: > 100 µM (inactive)
[59]
  GI50: > 100 µM (inactive)
